≈ marks a conversion by molar mass, not a printed value. Like-named read-outs stand apart in the source and are kept apart here.
Experiments:
[1] = Human liver microsome (HLM) stability; format: in vitro ADME; conditions: human liver microsomes
Experimental: (§1) The stability of compounds was assessed in human plasma, human liver microsomes (HLM) and human hepatocytes (Hhep) using procedures previously published (Kong el al., ACS Med Chem Lett 12:1861-1865 (2021)). […] HLM stability T1/2 compound 1: >145 min. Hhep stability Tin compound 1: >217 min.

[2] = Human hepatocyte (Hhep) stability; format: in vitro ADME; conditions: human hepatocytes
Experimental: as §1

[3] = Caco-2 permeability; format: in vitro ADME; conditions: human
[4] = Kinetic solubility; format: physicochemical; conditions: kinetic from dmso stock
[5] = biological target: T1, hsCRBN-DDB1 complex (Homo sapiens, UniProt Q96SW2); experiment: Intact LC-MS of CRBN-DDB1 complex (covalent labeling); format: binding; conditions: for adduct formation with CRBN (intact MS): equimolar compound, room temperature
Experimental: After injecting 5 μg, proteins were desalted for four min on column with 100% A and then eluted with an HPLC gradient (0-100% B in 1 min; A=0.2 M acetic acid in water; B=0.2 M acetic acid in acetonitrile). The mass spectrometer was programmed to acquire full scan mass spectra (m/z 300-2000) in profile mode (spray voltage=4.5 kV). Mass spectra were deconvoluted using MagTran software version 1.03b2.

[6] = tested on: IKZF1; experiment: Inhibition of IKZF1 degradation by lenalidomide, Western blot in MOLT4 cells; conditions: 1 μM compound 2 hr pre-treatment, then 1 μM lenalidomide 5 hours
[7] = biological target: T2, GSPT1 (Homo sapiens, UniProt P15170); experiment: Mass spectrometry proteomics, relative protein abundance in MOLT4 cells (GSPT1); format: cell-based; conditions: 1 μM compound, 5 hours
T2 construct: endogenous in cells; host or cells: MOLT4

[8] = biological target: T3, PFKFB4 (Homo sapiens, UniProt Q16877); experiment: Mass spectrometry proteomics, relative protein abundance in MOLT4 cells (PFKFB4); format: cell-based; conditions: 1 μM compound, 5 hours
T3 construct: endogenous in cells; host or cells: MOLT4

[9] = biological target: T4, RNF166 (Homo sapiens, UniProt Q96A37); experiment: Mass spectrometry proteomics, relative protein abundance in MOLT4 cells (RNF166); format: cell-based; conditions: 1 μM compound, 5 hours
T4 construct: endogenous in cells; host or cells: MOLT4
T4 sequence (Q96A37 1-237): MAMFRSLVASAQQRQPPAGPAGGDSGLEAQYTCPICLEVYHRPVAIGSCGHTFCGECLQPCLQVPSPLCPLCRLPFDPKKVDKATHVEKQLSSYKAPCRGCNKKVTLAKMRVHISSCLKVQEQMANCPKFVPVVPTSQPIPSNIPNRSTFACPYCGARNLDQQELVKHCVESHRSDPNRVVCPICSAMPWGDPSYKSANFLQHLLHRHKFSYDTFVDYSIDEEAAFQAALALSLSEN

[10] = biological target: T1, hsCRBN-DDB1 complex; experiment: Peptide mapping CE-MS/MS, site of covalent modification; format: binding; conditions: trypsin digest
Source text: Peptides were resolved at 500 V/cm using an HR chip with a background electrolyte consisting of 50% acetonitrile with 1% formic acid. The mass spectrometer was operated in data dependent mode and the five most abundant ions in each MS scan (m/z 300-2000, 60K resolution, 3E6 target, 100 ms max fill time) were subjected to MS/MS (15K resolution, 1E5 target, 100 ms max fill time). […] Search parameters specified fixed vinylpyridine modification of cysteine, variable methionine oxidation, and variable modification of cysteine. Modified spectra were examined and figures prepared using mzStudio software.

[11] = biological target: T5, NanoLuc-CRBN (Homo sapiens, UniProt Q96SW2); experiment: Cellular CRBN NanoBret Engagement Assay; format: cell-based
T5 construct: expressed in transfected cells; host or cells: HEK293T, lentiviral transduction, puromycin selection
Experimental: HEK293T cells were transduced with lentivirus and put under puromycin selection (5 μg/mL) for two weeks to produce a cell line stably expressing CRBN with N-terminally fused NanoLuc® luciferase (NanoLuc-CRBN). After antibiotic selection, cells were cultured in DMEM (Gibco, Life Technologies) supplemented with 10% FBS and 1 μg/mL puromycin to maintain stable NanoLuc®-CRBN expression. […] After 3-4 min, the trypsin was quenched with 5× volume DMEM media (Gibco, Life Technologies) with 10% FBS and cells were collected by centrifugation (1000 rpm, 5 min). The supernatant was removed by vacuum aspiration and the pellet was then resuspended in Opti-MEM™ without phenol red. The density of this cell suspension was determined by diluting the cells 1:1 with trypan blue, then counting using a Countess II (Thermo Fischer Scientific) and then diluted to the required volume at 2×10^5 viable cells/mL in Opti-MEM™ I (Gibco, Life Technologies). […] After plating, the assay plate was centrifuged (500×g, 5 min) and covered in aluminum foil. Compounds for testing were added to the plate using a D300e Digital Dispenser (HP) in duplicate 12-pt titrations from a 10 mM stock in DMSO, with DMSO normalized to 1% total volume. The plate was then placed in an incubator at 37° C., 5% CO2 for two hours. […] This was then added to each well (25 μL/well). The plate was read on a Pherastar FSX microplate reader with simultaneous dual emission capabilities to read 384-well plates at 450 and 520 nm. The NanoBRET™ ratio was calculated by dividing the signal at 520 nm by the signal at 450 nm for each sample. […] The NanoLuc® substrate and extracellular inhibitor were purchased as a kit from Promega Corporation and used as is from the box—Promega NanoBRET™ Nano-Glo® Substrate/Inhibitor; Promega Catalog number N2161 for 10,000 assay kit.

[12] = in vitro; conditions: human, plasma
[13] = HEK293T cells stably expressing NanoLuc-CRBN, 250 nM BODIPY-lenalidomide tracer, 2 h incubation, read-out: CRBN NanoBRET IC50

O=C1CCC(N2Cc3ccc(OS(=O)(=O)F)cc3C2=O)C(=O)N1 (stereo not drawn) [Compound 1, 2-(2,6-dioxopiperidin-3-yl)-3-oxoisoindolin-5-yl sulfurofluoridate]
HLM stability T1/2 [1]: > 2.42 h
Hhep stability Tin [2]: > 217 min
Papp [3]: 29.5 ×10⁻⁶ cm/s
solubility kinetic [4]: 119 µM (≈ 40.7 µg/mL)

O=C1CCC(N2Cc3cc(OS(=O)(=O)F)ccc3C2=O)C(=O)N1 (stereo not drawn) [Compound 2, 2-(2,6-dioxopiperidin-3-yl)-1-oxoisoindolin-5-yl sulfurofluoridate]
adduct formation with CRBN (intact MS) [5]: form an adduct with CRBN

O=C1CCC(N2Cc3ccc(S(=O)(=O)F)cc3C2=O)C(=O)N1 (stereo not drawn) [Compound 3, 2-(2,6-dioxopiperidin-3-yl)-3-oxoisoindoline-5-sulfonyl fluoride]
mass shift of CRBN (Δmass) ([5]; 1 eq. compound, 4 hr): 307
adduct formation with CRBN (intact MS) [5]: form an adduct with CRBN
inhibition of IKZF1 degradation by lenalidomide [6]: clearly inhibits the degradation of IKZF1 by lenalidomide

O=C1CCC(N2Cc3cc(S(=O)(=O)F)ccc3C2=O)C(=O)N1 (stereo not drawn) [Compound 4, 2-(2,6-dioxopiperidin-3-yl)-1-oxoisoindoline-5-sulfonyl fluoride]
relative fold-change abundance of GSPT1 [7]: clearly downregulated
relative fold-change abundance of PFKFB4 [8]: clearly downregulated
relative fold-change abundance of RNF166 [9]: clearly downregulated
adduct formation with CRBN (intact MS) [5]: form an adduct with CRBN
site of covalent labeling of CRBN [10]: label His353

C=CS(=O)(=O)c1ccc2c(c1)C(=O)N(C1CCC(=O)NC1=O)C2 (stereo not drawn) [Compound 5, 3-(1-oxo-6-(vinylsulfonyl)isoindolin-2-yl)piperidine-2,6-dione]
IC50 [11, 13]: 12.6 µM

C=CS(=O)(=O)Nc1ccc2c(c1)C(=O)N(C1CCC(=O)NC1=O)C2 (stereo not drawn) [Compound 6, N-(2-(2,6-dioxopiperidin-3-yl)-3-oxoisoindolin-5-yl)ethenesulfonamide]
IC50 [11, 13]: 0.54 µM

Nc1cc(OS(=O)(=O)F)cc2c1CN(C1CCC(=O)NC1=O)C2=O (stereo not drawn) [Compound 10, 4-amino-2-(2,6-dioxo-3-piperidyl)-6-fluorosulfonyloxy-1-oxo-isoindoline]
IC50 [11]: 0.89 µM

Cc1cnn(S(=O)(=O)c2ccc3c(c2)C(=O)N(C2CCC(=O)NC2=O)C3)c1 (stereo not drawn) [Compound 11, 3-(6-((4-methyl-1H-pyrazol-1-yl)sulfonyl)-1-oxoisoindolin-2-yl)piperidine-2,6-dione]
Human plasma stability T1/2: > 4.82 h

O=C1CCC(N2Cc3ccc(S(=O)(=O)n4cc(F)cn4)cc3C2=O)C(=O)N1 (stereo not drawn) [Compound 12, 3-(6-((4-fluoro-1H-pyrazol-1-yl)sulfonyl)-1-oxoisoindolin-2-yl)piperidine-2,6-dione]
Human plasma stability T1/2: 1.53 h

O=C1CCC(N2Cc3ccc(S(=O)(=O)n4cc(C(F)(F)F)cn4)cc3C2=O)C(=O)N1 (stereo not drawn) [Compound 13, 3-(1-oxo-6-((4-(trifluoromethyl)-1H-pyrazol-1-yl)sulfonyl)isoindolin-2-yl)piperidine-2,6-dione]
Human plasma stability T1/2: 0.167 h

O=C1CCC(N2Cc3ccc(S(=O)(=O)n4cnc(C(F)(F)F)c4)cc3C2=O)C(=O)N1 (stereo not drawn) [Compound 14, 3-(1-oxo-6-((4-(trifluoromethyl)-1H-imidazol-1-yl)sulfonyl)isoindolin-2-yl)piperidine-2,6-dione]
Human plasma stability T1/2: 0.108 h

O=C1CCC(N2Cc3ccc(S(=O)(=O)n4ccc(F)n4)cc3C2=O)C(=O)N1 (stereo not drawn) [Compound 15, 3-(6-((3-fluoro-1H-pyrazol-1-yl)sulfonyl)-1-oxoisoindolin-2-yl)piperidine-2,6-dione]
Human plasma stability T1/2: 1.92 h

O=C1CCC(N2Cc3ccc(S(=O)(=O)n4cnc(F)c4)cc3C2=O)C(=O)N1 (stereo not drawn) [Compound 17, 3-(6-((4-fluoro-1H-imidazol-1-yl)sulfonyl)-1-oxoisoindolin-2-yl)piperidine-2,6-dione]
Human plasma stability T1/2: 0.317 h

O=C1CCC(N2Cc3ccc(S(=O)(=O)n4ccc(C(F)(F)F)n4)cc3C2=O)C(=O)N1 (stereo not drawn) [Compound 18, 3-(1-oxo-6-((3-(trifluoromethyl)-1H-pyrazol-1-yl)sulfonyl)isoindolin-2-yl)piperidine-2,6-dione]
Human plasma stability T1/2: 0.233 h

Cc1cn(S(=O)(=O)c2ccc3c(c2)C(=O)N(C2CCC(=O)NC2=O)C3)c(=O)[nH]c1=O (stereo not drawn) [Compound 19, 1-((2-(2,6-dioxopiperidin-3-yl)-3-oxoisoindolin-5-yl)sulfonyl)-5-methylpyrimidine-2,4(1H,3H)-dione]
Human plasma stability T1/2: 3.98 h

Nc1cn(S(=O)(=O)c2ccc3c(c2)C(=O)N(C2CCC(=O)NC2=O)C3)c(=O)[nH]c1=O (stereo not drawn) [Compound 20, 5-amino-1-((2-(2,6-dioxopiperidin-3-yl)-3-oxoisoindolin-5-yl)sulfonyl)pyrimidine-2,4(1H,3H)-dione]
IC50 [11, 13]: 8.63 µM
half-life [12]: > 4.82 h

O=C1CCC(N2Cc3ccc(S(=O)(=O)n4ccc(=O)[nH]c4=O)cc3C2=O)C(=O)N1 (stereo not drawn) [Compound 21, 1-((2-(2,6-dioxopiperidin-3-yl)-3-oxoisoindolin-5-yl)sulfonyl)pyrimidine-2,4(1H,3H)-dione]
Human plasma stability T1/2: 2.72 h

Reference: patent US20240409528A1, “BINDERS OF CEREBLON AND METHODS OF USE THEREOF” (DANA-FARBER CANCER INSTITUTE, INC., priority 2021, published 2024)
